Consider 31 compounds from US8586573B2, “N-(Aminoheteroaryl)-1H-indole-2-carboxamide derivatives, and preparation and therapeutic application thereof” (Sanofi, priority 2006, dated 2013).

Structures are written as SMILES.

With `COc1cc(N2CCCC2)ncc1NC(=O)c1cc2cc(F)ccc2n1Cc1ccncc1` [Compound 18, N-[4-methoxy-6-(pyrrolidin-1-yl)pyridin-3-yl]-5-fluoro-1-[(pyridin-4-yl)methyl]-1H-indole-2-carboxamide], the melting point (commonly the temperature of the solid-liquid transition) was 225 to 226 °C.

`Cc1cc(Cn2c(C(=O)Nc3ccc(N4CCCC4)nc3)cc3cc(F)ccc32)ccn1` [Compound 19, N-[6-(pyrrolidin-1-yl)pyridin-3-yl]-5-fluoro-1-[(2-methylpyridin-4-yl)methyl]-1H-indole-2-carboxamide] displayed a melting point of 213 to 215 °C.

In turn, `O=C(Nc1ccc(N2CC3CCC3C2)nc1)c1cc2cc(F)ccc2n1Cc1cccc(F)c1` (stereo not shown) [Compound 22, N-[6-(3-azabicyclo[3.2.0]hept-3-yl)pyridin-3-yl]-5-fluoro-1-(3-fluorobenzyl)-1H-indole-2-carboxamide] came in with a melting point of 163 to 165 °C.

On to `O=C(Nc1ccc(N2CC(O)C2)nc1)c1cc2cc(F)ccc2n1Cc1cccc(F)c1` [Compound 24, N-[6-(3-hydroxyazetidin-1-yl)pyridin-3-yl]-5-fluoro-1-(3-fluorobenzyl)-1H-indole-2-carboxamide], for which the melting point was 199 to 200 °C.

With `O=C(Nc1ccc(N2CCC2)nc1)c1cc2cc(C(F)(F)F)ccc2n1Cc1cccc(F)c1` [Compound 25, N-[6-(azetidin-1-yl)pyridin-3-yl]-5-trifluoromethyl-1-(3-fluorobenzyl)-1H-indole-2-carboxamide], the melting point fell in the range of 222 to 224 °C.

`O=C(Nc1ccc(N2CCC2)nc1)c1cc2cc(F)ccc2n1Cc1ccncc1` [Compound 26, N-[6-(azetidin-1-yl)pyridin-3-yl]-1-[(pyridin-4-yl)methyl]-5-fluoro-1H-indole-2-carboxamide] showed a melting point of 212 to 214 °C.

Compound `O=C(Nc1ccc(N2CC(O)C2)nc1)c1cc2cc(C(F)(F)F)ccc2n1Cc1cccc(F)c1` [Compound 29, N-[6-(3-hydroxyazetidin-1-yl)pyridin-3-yl]-1-(3-fluorobenzyl)-5-trifluoromethyl-1H-indole-2-carboxamide] registered a melting point of 194 to 196 °C.

As for `O=C(Nc1ccc(N2CC(O)C2)nc1)c1cc2ccc(C(F)(F)F)cc2n1Cc1cccc(F)c1` [Compound 30, N-[6-(3-hydroxyazetidin-1-yl)pyridin-3-yl]-1-(3-fluorobenzyl)-6-trifluoromethyl-1H-indole-2-carboxamide], the melting point lay in the range of 253 to 255 °C.

Compound `O=C(Nc1ccc(N2CCC2)nc1)c1cc2cc(F)ccc2n1Cc1ccccc1` [Compound 31, N-[6-(azetidin-1-yl)pyridin-3-yl]-5-fluoro-1-(benzyl)-1H-indole-2-carboxamide] yielded a melting point of 208 to 210 °C.

On to `Cc1cc(C)c2cc(C(=O)Nc3ccc(N4CCC4)nc3)n(Cc3cccc(F)c3)c2c1` [Compound 32, N-[6-(azetidin-1-yl)pyridin-3-yl]-4,6-dimethyl-1-(3-fluorobenzyl)-1H-indole-2-carboxamide], for which the melting point lay within 234 to 236 °C.

Regarding `CC(C)(C)c1ccc2cc(C(=O)Nc3ccc(N4CCC4)nc3)n(Cc3cccc(F)c3)c2c1` [Compound 33, N-[6-(azetidin-1-yl)pyridin-3-yl]-6-tert-butyl-1-(3-fluorobenzyl)-1H-indole-2-carboxamide], the melting point is 204 to 206 °C.

Turning to `CC(C)Oc1ccc2cc(C(=O)Nc3ccc(N4CCC4)nc3)n(Cc3cccc(F)c3)c2c1` [Compound 34, N-[6-(azetidin-1-yl)pyridin-3-yl]-6-isopropyloxy-1-(3-fluorobenzyl)-1H-indole-2-carboxamide], the melting point fell in the range of 198 to 200 °C.

In turn, `CS(=O)(=O)c1ccc2c(c1)cc(C(=O)Nc1ccc(N3CCC3)nc1)n2Cc1cccc(F)c1` [Compound 35, N-[6-(azetidin-1-yl)pyridin-3-yl]-5-methylsulphonyl-1-(3-fluorobenzyl)-1H-indole-2-carboxamide] had a melting point of 258 to 260 °C.

With `CN(C)c1ccc2cc(C(=O)Nc3ccc(N4CCC4)nc3)n(Cc3cccc(F)c3)c2c1` [Compound 36, N-[6-(azetidin-1-yl)pyridin-3-yl]-6-dimethylamino-1-(3-fluorobenzyl)-1H-indole-2-carboxamide], the melting point was 256 to 258 °C.

In turn, `CSc1ccc2cc(C(=O)Nc3ccc(N4CCC4)nc3)n(Cc3cccc(F)c3)c2c1` [Compound 37, N-[6-(azetidin-1-yl)pyridin-3-yl]-6-methylthio-1-(3-fluorobenzyl)-1H-indole-2-carboxamide] gave a melting point of 206 to 208 °C.

With `O=C(Nc1ccc(N2CCC2)nc1)c1cc2c(F)cccc2n1Cc1cccc(F)c1` [Compound 38, N-[6-(azetidin-1-yl)pyridin-3-yl]-4-fluoro-1-(3-fluorobenzyl)-1H-indole-2-carboxamide], the melting point is 214 to 216 °C.

`O=C(Nc1ccc(N2CCC2)nc1)c1cc2cccc(F)c2n1Cc1cccc(F)c1` [Compound 39, N-[6-(azetidin-1-yl)pyridin-3-yl]-7-fluoro-1-(3-fluorobenzyl)-1H-indole-2-carboxamide] had a melting point of 244 to 246 °C.

The compound `O=C(Nc1ccc(N2CCC2)nc1)c1cc2ccc(F)cc2n1Cc1cccc(F)c1` [Compound 40, N-[6-(azetidin-1-yl)pyridin-3-yl]-6-fluoro-1-(3-fluorobenzyl)-1H-indole-2-carboxamide] had a melting point of 210 to 212 °C.

On to `O=C(Nc1ccc(N2CCC2)nc1)c1cc2c(Cl)cccc2n1Cc1cccc(F)c1` [Compound 41, N-[6-(azetidin-1-yl)pyridin-3-yl]-4-chloro-1-(3-fluorobenzyl)-1H-indole-2-carboxamide], for which the melting point lay in the range of 226 to 228 °C.

`O=C(Nc1ccc(N2CCC2)nc1)c1cc2ccc(Cl)cc2n1Cc1cccc(F)c1` [Compound 42, N-[6-(azetidin-1-yl)pyridin-3-yl]-6-chloro-1-(3-fluorobenzyl)-1H-indole-2-carboxamide] displayed a melting point of 218 to 220 °C.

Compound `O=C(Nc1ccc(N2CCC2)nc1)c1cc2cc(Cl)ccc2n1Cc1cccc(F)c1` [Compound 43, N-[6-(azetidin-1-yl)pyridin-3-yl]-5-chloro-1-(3-fluorobenzyl)-1H-indole-2-carboxamide] registered a melting point of 226 to 228 °C.

The compound `O=C(Nc1ccc(N2CCC2)nc1)c1cc2ccccc2n1Cc1cccc(F)c1` [Compound 44, N-[6-(azetidin-1-yl)pyridin-3-yl]-1-(3-fluorobenzyl)-1H-indole-2-carboxamide] had a melting point of 328 to 330 °C.

Take `Cc1cccc2c1cc(C(=O)Nc1ccc(N3CCC3)nc1)n2Cc1cccc(F)c1` [Compound 45, N-[6-(azetidin-1-yl)pyridin-3-yl]-4-methyl-1-(3-fluorobenzyl)-1H-indole-2-carboxamide]: the melting point fell in the range of 246 to 248 °C.

`Cc1ccc2cc(C(=O)Nc3ccc(N4CCC4)nc3)n(Cc3cccc(F)c3)c2c1` [Compound 46, N-[6-(azetidin-1-yl)pyridin-3-yl]-6-methyl-1-(3-fluorobenzyl)-1H-indole-2-carboxamide] gave a melting point of 228 to 230 °C.

As to `Cc1ccc2c(c1)cc(C(=O)Nc1ccc(N3CCC3)nc1)n2Cc1cccc(F)c1` [Compound 47, N-[6-(azetidin-1-yl)pyridin-3-yl]-5-methyl-1-(3-fluorobenzyl)-1H-indole-2-carboxamide], the melting point fell in the range of 236 to 238 °C.

With `CC(C)c1ccc2c(c1)cc(C(=O)Nc1ccc(N3CCC3)nc1)n2Cc1cccc(F)c1` [Compound 48, N-[6-(azetidin-1-yl)pyridin-3-yl]-5-isopropyl-1-(3-fluorobenzyl)-1H-indole-2-carboxamide], the melting point lay in the range of 204 to 206 °C.

In turn, `CC(C)(C)c1ccc2c(c1)cc(C(=O)Nc1ccc(N3CCC3)nc1)n2Cc1cccc(F)c1` [Compound 49, N-[6-(azetidin-1-yl)pyridin-3-yl]-5-tert-butyl-1-(3-fluorobenzyl)-1H-indole-2-carboxamide] yielded a melting point of 212 to 214 °C.

In turn, `CCc1ccc2cc(C(=O)Nc3ccc(N4CCC4)nc3)n(Cc3cccc(F)c3)c2c1` [Compound 50, N-[6-(azetidin-1-yl)pyridin-3-yl]-6-ethyl-1-(3-fluorobenzyl)-1H-indole-2-carboxamide] displayed a melting point of 196 to 198 °C.

`CC(C)c1ccc2cc(C(=O)Nc3ccc(N4CCC4)nc3)n(Cc3cccc(F)c3)c2c1` [Compound 51, N-[6-(azetidin-1-yl)pyridin-3-yl]-6-isopropyl-1-(3-fluorobenzyl)-1H-indole-2-carboxamide]: the melting point was in the range of 184 to 186 °C.

As for `O=C(Nc1ccc(N2CCC2)nc1)c1cc2ccc(C(F)(F)F)cc2n1Cc1cccc(F)c1` [Compound 52, N-[6-(azetidin-1-yl)pyridin-3-yl]-6-trifluoromethyl-1-(3-fluorobenzyl)-1H-indole-2-carboxamide], the melting point fell in the range of 220 to 222 °C.

The compound `O=C(Nc1cnc(N2CCCC2)cc1C(F)(F)F)c1cc2cc(F)ccc2n1Cc1cccc(F)c1` [Compound 53, N-[6-(pyrrolidin-1-yl)-4-(trifluoromethyl)pyridin-3-yl]-5-fluoro-1-(3-fluorobenzyl)-1H-indole-2-carboxamide] returned a melting point of 170 to 171 °C.
